Results taken from patent US9862749B2, “Analogue peptide CMA3 derived from CM-MA peptide and use thereof” (Industry-Academic Cooperation Foundation, Chosun University, priority 2014, dated 2018).
Values after ≈ are worked out from the molar mass of the structure shown. Peptide text beside a SMILES is read from it.

Key:
Assay type in all cases: cell-based
in vitro = settings: human, HaCaT cells (human keratinocyte cell line)
Protocol: To investigate the cytotoxicity of each peptide prepared by the method of Example 1 to human keratinocyte cell line (HaCaT cell line, Dr. N E. Fusenig, Heidelberg, Germany) was measured.
Particularly, the HaCaT cell line cultured in DMEM supplemented with 10% FBS (Fetal Bovine Serum) was distributed in a 96-well plate at the density of 3×10^3 cells/well, followed by culture for 24 hours. The CM-MA, CMA1, CMA2, CMA3, CMA4, CMA5, or CMA6 peptide prepared in Example 1 was treated to each well at the concentration of 12.5, 25.0, 50.0, 100.0, or 200.0 μM/well, followed by reaction in a 5% CO2 incubator for 24 hours. Upon completion of the culture, 20 ul of the reaction solution containing 5 mg/ml MTT (Thiazolyl Blue Tetrazolium Bromide) dissolved in PBS (phosphate buffered saline) was added to each well, followed by reaction for 4 hours. Then, the supernatant was eliminated.

Staphylococcus aureus = settings: 12 h
Protocol: (§1) To compare the antibacterial activities among those peptides prepared by the method of Example 1 of the invention, the inventors measured MIC (minimal inhibitory concentration) of the peptide which is the minimum concentration for staying without being broken.
(§2) Particularly, the strains listed in Table 2 were purchased and cultured in each medium composed as instructed until the mid-log phase. The cells were diluted at the density of 5×10^5 cells/100 μl, which were then inoculated in a micro-titrate plate (Nunc, USA). Then, the CMA1, CMA2, CMA3, CMA4, CMA5, or CMA6 peptide synthesized in Example 1 was ½ fold diluted in each 96 well plate, and then added to the plate, followed by culture at 37° C. for 12 hours. OD620 was measured with a micro-titrate plate reader (Merck Elisa reader, Germany) to determine MIC for each strain. As for the control, the mother peptide CM-MA was treated by the same manner as described above and MIC was also determined.

Pseudomonas aeruginosa = settings: 12 h
Protocol: as §1, §2

Salmonella typhimurium = settings: 12 h
Protocol: as §1, §2

Listeria monocytogenes = settings: 12 h
Protocol: as §1, §2

[1] = system: Staphylococcus epidermidis; settings: 12 h
Protocol: as §1, §2

Escherichia coli = settings: 12 h
Protocol: as §1, §2

Structure (SMILES): CC[C@H](C)[C@H](NC(=O)CNC(=O)[C@@H](NC(=O)[C@H](CCCCN)NC(=O)[C@H](CCCCN)NC(=O)[C@H](Cc1ccccc1)NC(=O)[C@H](CC(C)C)NC(=O)[C@H](CCCCN)NC(=O)[C@H](Cc1c[nH]c2ccccc12)NC(=O)[C@@H](N)CCCCN)[C@@H](C)CC)C(=O)NCC(=O)N[C@@H](CCCCN)C(=O)N[C@@H](Cc1ccccc1)C(=O)N[C@@H](CC(C)C)C(=O)N[C@@H](Cc1c[nH]cn1)C(=O)N[C@@H](CO)C(=O)N[C@@H](C)C(=O)N[C@@H](CCCCN)C(=O)N[C@@H](CCCCN)C(=O)N[C@@H](Cc1ccccc1)C(N)=O [CA-MA, reference compound] (H-KWKLFKKIGIGKFLHSAKKF-NH2)
- viability at 24 h, 200 µM (in vitro): 1.4%
- Minimal inhibitory concentration (Staphylococcus aureus): 8 µM (≈ 19.2 µg/mL)
- Minimal inhibitory concentration (Pseudomonas aeruginosa): 1 µM (≈ 2.4 µg/mL)
- Minimal inhibitory concentration (Salmonella typhimurium): 1 µM (≈ 2.4 µg/mL)
- Minimal inhibitory concentration (Listeria monocytogenes): 0.5 µM (≈ 1.2 µg/mL)
- Minimal inhibitory concentration [1]: 8 µM (≈ 19.2 µg/mL)
- Minimal inhibitory concentration (Escherichia coli): 2 µM (≈ 4.81 µg/mL)

Structure (SMILES): CC[C@H](C)[C@H](NC(=O)CNC(=O)[C@@H](NC(=O)[C@H](CCCCN)NC(=O)[C@H](CCCCN)NC(=O)[C@H](Cc1ccccc1)NC(=O)[C@H](CC(C)C)NC(=O)[C@H](CCCCN)NC(=O)[C@H](Cc1c[nH]c2ccccc12)NC(=O)[C@@H](N)CCCCN)[C@@H](C)CC)C(=O)NCC(=O)N[C@@H](CCCCN)C(=O)N[C@@H](Cc1c[nH]cn1)C(=O)N[C@@H](Cc1ccccc1)C(=O)N[C@@H](CC(C)C)C(=O)N[C@@H](CO)C(=O)N[C@@H](C)C(=O)N[C@@H](CCCCN)C(=O)N[C@@H](CCCCN)C(=O)N[C@@H](Cc1ccccc1)C(N)=O [CMA1] (H-KWKLFKKIGIGKHFLSAKKF-NH2)
- viability at 24 h, 200 µM (in vitro): 51.1%
- Minimal inhibitory concentration (Staphylococcus aureus): 16 µM (≈ 38.5 µg/mL)
- Minimal inhibitory concentration (Pseudomonas aeruginosa): 8 µM (≈ 19.2 µg/mL)
- Minimal inhibitory concentration (Salmonella typhimurium): 1 µM (≈ 2.4 µg/mL)
- Minimal inhibitory concentration (Listeria monocytogenes): 4 µM (≈ 9.62 µg/mL)
- Minimal inhibitory concentration [1]: 32 µM (≈ 76.9 µg/mL)
- Minimal inhibitory concentration (Escherichia coli): 8 µM (≈ 19.2 µg/mL)

Structure (SMILES): CC[C@H](C)[C@H](NC(=O)CNC(=O)[C@@H](NC(=O)[C@H](CCCCN)NC(=O)[C@H](CCCCN)NC(=O)[C@H](Cc1ccccc1)NC(=O)[C@H](CC(C)C)NC(=O)[C@H](CCCCN)NC(=O)[C@H](Cc1c[nH]c2ccccc12)NC(=O)[C@@H](N)CCCCN)[C@@H](C)CC)C(=O)NCC(=O)N[C@@H](CCCCN)C(=O)N[C@@H](Cc1ccccc1)C(=O)N[C@@H](CC(C)C)C(=O)N[C@@H](CO)C(=O)N[C@@H](C)C(=O)N[C@@H](Cc1c[nH]cn1)C(=O)N[C@@H](CCCCN)C(=O)N[C@@H](CCCCN)C(=O)N[C@@H](Cc1ccccc1)C(N)=O [CMA2] (H-KWKLFKKIGIGKFLSAHKKF-NH2)
- Minimal inhibitory concentration (Staphylococcus aureus): 32 µM (≈ 76.9 µg/mL)
- Minimal inhibitory concentration (Pseudomonas aeruginosa): 4 µM (≈ 9.62 µg/mL)
- Minimal inhibitory concentration (Salmonella typhimurium): 1 µM (≈ 2.4 µg/mL)
- Minimal inhibitory concentration (Listeria monocytogenes): 1 µM (≈ 2.4 µg/mL)
- Minimal inhibitory concentration [1]: 16 µM (≈ 38.5 µg/mL)
- Minimal inhibitory concentration (Escherichia coli): 2 µM (≈ 4.81 µg/mL)

Structure (SMILES): CC[C@H](C)[C@H](NC(=O)CNC(=O)[C@@H](NC(=O)[C@H](Cc1c[nH]cn1)NC(=O)[C@H](CCCCN)NC(=O)[C@H](CCCCN)NC(=O)[C@H](CC(C)C)NC(=O)[C@H](CCCCN)NC(=O)[C@H](Cc1c[nH]c2ccccc12)NC(=O)[C@@H](N)CCCCN)[C@@H](C)CC)C(=O)NCC(=O)N[C@@H](CCCCN)C(=O)N[C@@H](Cc1c[nH]cn1)C(=O)N[C@@H](Cc1ccccc1)C(=O)N[C@@H](CC(C)C)C(=O)N[C@@H](CO)C(=O)N[C@@H](C)C(=O)N[C@@H](CCCCN)C(=O)N[C@@H](CCCCN)C(=O)N[C@@H](Cc1ccccc1)C(N)=O [CMA3] (H-KWKLKKHIGIGKHFLSAKKF-NH2; N-terminus assumed)
- viability at 24 h, 200 µM (in vitro): 92.4%
- Minimal inhibitory concentration (Staphylococcus aureus): 32 µM (≈ 76.6 µg/mL)
- Minimal inhibitory concentration (Pseudomonas aeruginosa): 8 µM (≈ 19.2 µg/mL)
- Minimal inhibitory concentration (Salmonella typhimurium): 1 µM (≈ 2.39 µg/mL)
- Minimal inhibitory concentration (Listeria monocytogenes): 2 µM (≈ 4.79 µg/mL)
- Minimal inhibitory concentration [1]: 64 µM (≈ 153 µg/mL)
- Minimal inhibitory concentration (Escherichia coli): 4 µM (≈ 9.58 µg/mL)

Structure (SMILES): CC[C@H](C)[C@H](NC(=O)CNC(=O)[C@@H](NC(=O)[C@H](CCCCN)NC(=O)[C@H](CCCCN)NC(=O)[C@H](CC(C)C)NC(=O)[C@H](Cc1c[nH]cn1)NC(=O)[C@H](CCCCN)NC(=O)[C@H](Cc1c[nH]c2ccccc12)NC(=O)[C@@H](N)CCCCN)[C@@H](C)CC)C(=O)NCC(=O)N[C@@H](CCCCN)C(=O)N[C@@H](Cc1ccccc1)C(=O)N[C@@H](CC(C)C)C(=O)N[C@@H](CO)C(=O)N[C@@H](C)C(=O)N[C@@H](Cc1c[nH]cn1)C(=O)N[C@@H](CCCCN)C(=O)N[C@@H](CCCCN)C(=O)N[C@@H](Cc1ccccc1)C(N)=O [CMA4] (H-KWKHLKKIGIGKFLSAHKKF-NH2)
- viability at 24 h, 200 µM (in vitro): 64.5%
- Minimal inhibitory concentration (Staphylococcus aureus): 32 µM (≈ 76.6 µg/mL)
- Minimal inhibitory concentration (Pseudomonas aeruginosa): 16 µM (≈ 38.3 µg/mL)
- Minimal inhibitory concentration (Salmonella typhimurium): 1 µM (≈ 2.39 µg/mL)
- Minimal inhibitory concentration (Listeria monocytogenes): 2 µM (≈ 4.79 µg/mL)
- Minimal inhibitory concentration [1]: 32 µM (≈ 76.6 µg/mL)
- Minimal inhibitory concentration (Escherichia coli): 4 µM (≈ 9.58 µg/mL)

Structure (SMILES): CC[C@H](C)[C@H](NC(=O)CNC(=O)[C@@H](NC(=O)[C@H](CCCCN)NC(=O)[C@H](CCCCN)NC(=O)[C@H](CC(C)C)NC(=O)[C@H](Cc1c[nH]cn1)NC(=O)[C@H](CCCCN)NC(=O)[C@H](Cc1c[nH]c2ccccc12)NC(=O)[C@@H](N)CCCCN)[C@@H](C)CC)C(=O)NCC(=O)N[C@@H](CCCCN)C(=O)N[C@@H](Cc1c[nH]cn1)C(=O)N[C@@H](Cc1ccccc1)C(=O)N[C@@H](CC(C)C)C(=O)N[C@@H](CO)C(=O)N[C@@H](C)C(=O)N[C@@H](CCCCN)C(=O)N[C@@H](CCCCN)C(=O)N[C@@H](Cc1ccccc1)C(N)=O [CMA5] (H-KWKHLKKIGIGKHFLSAKKF-NH2)
- viability at 24 h, 200 µM (in vitro): 78.9%
- Minimal inhibitory concentration (Staphylococcus aureus): 32 µM (≈ 76.6 µg/mL)
- Minimal inhibitory concentration (Pseudomonas aeruginosa): 16 µM (≈ 38.3 µg/mL)
- Minimal inhibitory concentration (Salmonella typhimurium): 1 µM (≈ 2.39 µg/mL)
- Minimal inhibitory concentration (Listeria monocytogenes): 2 µM (≈ 4.79 µg/mL)
- Minimal inhibitory concentration [1]: 64 µM (≈ 153 µg/mL)
- Minimal inhibitory concentration (Escherichia coli): 8 µM (≈ 19.2 µg/mL)

Structure (SMILES): CC[C@H](C)[C@H](NC(=O)CNC(=O)[C@@H](NC(=O)[C@H](CCCCN)NC(=O)[C@H](CCCCN)NC(=O)[C@H](Cc1ccccc1)NC(=O)[C@H](CC(C)C)NC(=O)[C@H](CCCCN)NC(=O)[C@H](Cc1c[nH]c2ccccc12)NC(=O)[C@@H](N)CCCCN)[C@@H](C)CC)C(=O)NCC(=O)N[C@@H](CCCCN)C(=O)N[C@@H](Cc1ccccc1)C(=O)N[C@@H](CC(C)C)C(=O)N[C@@H](CCC(N)=O)C(=O)N[C@@H](CO)C(=O)N[C@@H](C)C(=O)N[C@@H](CCCCN)C(=O)N[C@@H](CCCCN)C(=O)N[C@@H](Cc1ccccc1)C(N)=O [CMA6] (H-KWKLFKKIGIGKFLQSAKKF-NH2; N-terminus assumed)
- Minimal inhibitory concentration (Staphylococcus aureus): 16 µM (≈ 38.3 µg/mL)
- Minimal inhibitory concentration (Pseudomonas aeruginosa): 4 µM (≈ 9.58 µg/mL)
- Minimal inhibitory concentration (Salmonella typhimurium): 1 µM (≈ 2.4 µg/mL)
- Minimal inhibitory concentration (Listeria monocytogenes): 1 µM (≈ 2.4 µg/mL)
- Minimal inhibitory concentration [1]: 8 µM (≈ 19.2 µg/mL)
- Minimal inhibitory concentration (Escherichia coli): 4 µM (≈ 9.58 µg/mL)
